PubChem BioAssay AID2305 (GlaxoSmithKline (GSK), 2010)
pIC50: −log10 of the molar value.

system: P. falciparum 3D7 growth, pLDH absorbance; assay: blood-stage malaria parasite growth potency – strain 3D7, dose response (AID 2305)

| SMILES | pIC50 |
| --- | --- |
| O=C(Cn1c(CCc2cccc(F)c2F)nc(=O)c2ccccc21)N(Cc1ccc(-c2ccc(C(F)(F)F)cc2)cc1)C1CCN(C2CCOCC2)CC1 | 6.13 |
| Cc1ccccc1C(=O)Nc1cccc(-c2nc3ncccn3c2C)c1 | 6.12 |
| Oc1cc2c(cc1CN1CCN(Cc3ccc(Cl)s3)CC1)CCC2 | 6.21 |
| CN1CCC(NCc2cccc(-c3ccc(S(=O)(=O)NCCN4CCCC4)c(F)c3)c2)CC1 | 6.00 |
| COCCOc1nc(N)nc2ncc(Cc3cc(OC)ccc3OC)c(C)c12 | 6.37 |
| c1cc(CNCC2CCCO2)cc(-c2cccc(-c3nc4ccccc4[nH]3)c2)c1 (configuration not stated) | 6.07 |
| CC(C)COc1cc(C(=O)Nc2cnc3ccccc3c2)ccc1[N+](=O)[O-] | 6.11 |
| CCC(C)CN1CCN(c2cc(NC(=O)c3cccs3)ccn2)C(C)C1 (configuration not stated) | 6.00 |
| Cc1cc(C(=O)Nc2ccc3c(c2)CCN3C2CCN(Cc3ccc(O)cc3)C2)no1 (configuration not stated) | 6.11 |
| Cc1cc(Oc2ccc(-n3ccnc3)cc2)nc(N2CCN(CCCN3CCCC3)CC2)n1 | 6.03 |
| CC(C)c1sc(N2CCN(C)CC2)nc1C(=O)Nc1cccc2c1CCCC2 | 5.89 |
| COc1ccccc1-c1nc2c(ccc3nc(N)nc(N)c32)[nH]1 | 6.74 |
| Oc1ccccc1CCNC1CCc2ccccc2C1 (configuration not stated) | 6.03 |
| CC(C)C[C@@H](C(=O)N[C@@H](CCCCNC(=O)OCc1ccccc1)C(=O)Nc1nccs1)[C@H](C)N(O)C=O | 6.72 |
| COc1cc2c(cc1C=CC(=O)N1CCN(Cc3nc4sc(C)c(C)c4c(=O)[nH]3)CC1)OC(C)C2 (configuration not stated) | 5.99 |
| COc1cccc(OC(C)(C)c2nc(N[C@@H](C)c3ccccc3)c3cn[nH]c3n2)c1 | 6.01 |
| CCCc1c(C(=O)NC2CCC(CN3CCC(c4c[nH]c5ccccc45)CC3)CC2)cnn1-c1ccccc1 (configuration not stated) | 5.75 |
| CCN(CCCN1CCCCC1)c1nccc(Nc2ccc(Cl)cc2)n1 | 5.92 |
| CCCNCc1ccc(-c2ccc(CN(CCOC)C(=O)CC3CCCC3=O)cc2)nc1 (configuration not stated) | 5.91 |
| CN1CCN(S(=O)(=O)c2ccc3nccc(Nc4ccc(Oc5ccccc5)cc4)c3c2)CC1 | 6.09 |
| NCC1CCCN1Cc1cccc(-c2ccc(-c3nc4ccccc4[nH]3)s2)c1 (configuration not stated) | 5.98 |
| Cc1[nH]c(C)c(-c2ccc(-c3ccc(Cl)cc3)nc2)c(=O)c1Br | 6.96 |
| O=C(Nc1cccc(-c2cccc(-c3nc4ccccc4[nH]3)c2)c1)Nc1ccc(Cl)c(Cl)c1 | 6.89 |
| CCCOc1ccc(C=C(CC(=O)O)c2nc3ccccc3s2)cc1OCC | 6.26 |
| COc1ccc(-c2cccc(NC(=O)c3cccc(Cl)c3)c2)cc1CNC(C)C | 6.14 |

| SMILES | pIC50 |
| --- | --- |
| O=C(Nc1cccc([N+](=O)[O-])c1)Nc1ccc(Cl)c(C(F)(F)F)c1 | 5.95 |
| CC(C)CCN1CCCN(Cc2cccc(C(=O)Nc3ccc(C(C)(C)C)cc3)c2)CC1 | 5.96 |
| COc1ccc(NC(=O)[C@H](Cc2ccccc2)Nc2cc(C)nc(NCCc3ccc(F)cc3)n2)cc1 | 5.95 |
| O=S(=O)(NCCN1CCCC1)c1cccc(-c2ccccc2CNC2Cc3ccccc3C2)c1 | 6.13 |
| CCCC(C)Nc1nc(C)cc(N[C@@H](Cc2ccccc2)C(=O)NCCOc2ccccc2)n1 (some centres not stated) | 6.15 |
| CC(=O)N1N=C(c2ccc(F)cc2)Sc2c1nc(-c1ccccc1)n2C(C)=O | 6.19 |
| O=C(Nc1ccc(-c2nc3ccccc3[nH]2)cc1)c1ccc([N+](=O)[O-])s1 | 6.60 |
| CCc1cn2c3c(cc(C(=O)N[C@@H](Cc4ccccc4)[C@H](O)CNC4CCOCC4)cc13)N(CC(F)(F)F)S(=O)(=O)CC2 | 7.52 |
| COc1c(CNCCCCCCNCc2c(OC)c(OC)c3ccccc3c2OC)c(OC)c2ccccc2c1OC | 6.02 |
| CCOc1cc(OCC)c2ccccc2c1CNCCCCCCNCc1c(OCC)cc(OCC)c2ccccc12 | 6.51 |
| CCn1c(-c2nonc2N)nc2c(-c3cccc(NC(=O)Nc4ccc(C(F)(F)F)cc4)c3)ncc(OCCCN)c21 | 5.98 |
| CN(/N=C/c1ccc(Cl)cc1)c1nc(NCCc2ccc(O)cc2)nc(N2CCNCC2)n1 | 5.87 |
| Cc1ccc(NC(=O)c2cccc(C#N)c2)cc1-c1ccc(C(=O)Nc2ccncc2)cc1 | 6.16 |
| O=C(NC1CC1)c1ccc(N2CCCCN2CCc2ccccc2)c(C(F)(F)F)c1 | 6.21 |
| Cc1cc(-c2ccc3occ(CCN)c3c2)cnc1N | 6.06 |
| CC1(C)C(N(O)C(=O)Nc2ccc(Cl)c(Cl)c2)N(c2ccc(Cl)c(Cl)c2)C(=O)N1CCc1ccccc1 (configuration not stated) | 6.09 |
| CCCCCCCNC(=O)NCC1CCCN(CCCCCNC(=O)/C=C/c2ccc(Cl)c(Cl)c2)C1 (configuration not stated) | 5.98 |
| NC(=O)C1CCN(Cc2cccc(-c3cccc(-c4nc5ccc(C(F)(F)F)cc5[nH]4)c3)c2)CC1 | 6.19 |
| CC(C)Oc1cc(-c2ccc(S(C)(=O)=O)cc2)nc(N(Cc2cccc(F)c2F)Cc2cccc(F)c2F)n1 | 6.92 |
| COc1c(C2CCN(CCCCNC(=O)c3ccc(-c4ccc(C#N)cc4)cc3)CC2)ccc2c1C(C)(C)CCC2(C)C | 6.39 |
| CCOc1ccc(-c2cc3nc(C4CCNCC4)c(C(=O)Nc4ccc(C)cc4Cl)cn3n2)cc1 | 6.04 |
| Nc1cccc(CNCc2cccc(-c3cccc(-c4nc5ccc(F)cc5[nH]4)c3)c2)c1 | 6.16 |
| O=C(N[C@H]1CCN(CCc2ccc(O[C@H]3CCNC3)cc2)C1)c1ccc(Cl)c(Cl)c1 | 6.08 |
| N#Cc1c(N2CCCCCC2)nc(N)c2c(N)nc3c(c12)CC(=O)N3c1ccc(F)cc1 | 6.68 |
| Cc1ccc(S(=O)Cc2ccc(Cl)cc2)cc1 (configuration not stated) | 6.70 |

| SMILES | pIC50 |
| --- | --- |
| COc1ccc(-c2cnc3[nH]cc(-c4ccc(C(=O)O)c(C)c4)c3c2)cn1 | 6.51 |
| O=C(Nc1cccc(OC2CCN(Cc3ccccc3)CC2)c1)Nc1cccc([N+](=O)[O-])c1 | 6.11 |
| CCCN1CCC(c2c[nH]c3ccc(NC(=O)Nc4cccc(Cl)c4Cl)cc23)CC1 | 6.09 |
| O=C(CCc1cnc[nH]1)Nc1cccc(-c2ccc(-c3nc4ccc(F)cc4[nH]3)s2)c1 | 6.25 |
| COc1cc(-n2cnc3cc(-c4ccc([N+](=O)[O-])cc4)sc3c2=O)ccc1OCCN1CCCC1 | 6.11 |
| O=C(Nc1ccc(Oc2ccc(OC(F)(F)F)cc2)cc1)c1ccco1 | 5.95 |
| Cc1ccc(Cn2ncc(N3CCCNCC3)c(Cl)c2=O)cc1NC(=O)Nc1ccc(-c2ccccc2)cc1 | 6.20 |
| CCOc1cc(C(=O)NCCN2CCCCC2)ccc1-c1nc2ccc(Cl)cc2[nH]1 | 5.97 |
| CCCCCCN(CCCCCC)CC(O)c1cc(-c2ccc(Cl)cc2)nc2c(C)cc(C)cc12 (configuration not stated) | 7.15 |
| COc1c(C2CCN(CCCCNC(=O)c3ccc(-c4ccc(C#N)cc4)nc3)CC2)ccc2c1CCCC2 | 6.28 |
| COc1ccc2nc(Nc3nc(-c4ccccn4)cs3)sc2c1 | 5.95 |
| COc1cccc(C2=CC(c3ccccc3)n3ncc(C(=O)Nc4ccc(Cl)cc4)c3N2)c1 (configuration not stated) | 5.97 |
| O=[N+]([O-])c1cccc(NC(=S)N2CCCN(Cc3ccc(F)cc3F)CC2)c1 | 6.08 |
| COc1cc(Nc2nccc(-c3c(-c4cccc(NC(=O)c5c(F)cccc5F)c4)nn4ccccc34)n2)cc(OC)c1OC | 7.10 |
| CC[C@H]1CN2CC[C@H]1C[C@H]2[C@H](O)c1cc(-c2ccccc2C)nc2ccc(OC)cc12 | 6.70 |
| Oc1c(Cl)cc(Nc2nccc(Nc3ccc(Oc4ccccc4)cc3)n2)cc1Cl | 6.10 |
| C#CCCC(=O)Nc1cccc(-c2cccc(-c3nc4ccc(C(F)(F)F)cc4[nH]3)c2)c1 | 6.09 |
| Cc1ccc(NC(=O)c2ccc(CN3CCCN(CC4CCCCC4)CC3)cc2)cc1 | 6.10 |
| CCC[C@@H]([C@@H](CC1CCCCC1)C(=O)N[C@H](C(=O)Nc1nccs1)C(C)(C)SCCNC(=O)OCc1ccccn1)N(O)C=O | 6.80 |
| COc1cccc2c(NCCNc3ccnc4c(OC)cccc34)ccnc12 | 6.57 |
| O=C(/C=C/c1ccc(Cl)c(Cl)c1)NCCCCCCN1CCN(C(=O)Nc2ccc(OC(F)F)cc2)CC1 | 6.17 |
| CN1CCCC1CCNCc1ccc(-c2ccc(CNCCc3ccccc3)cn2)cc1 (configuration not stated) | 5.95 |
| COc1ccc(NC(=O)Nc2cccc(-c3cccc(-c4nc5c(C)cccc5[nH]4)c3)c2)cc1 | 6.40 |
| OC(CNCc1ccccc1OCc1ccccc1)c1cc(Br)cs1 (configuration not stated) | 6.14 |
| Cc1cc(N2CCN(CC3CCCCC3)CC2)nc(Nc2ccc(Br)cc2)n1 | 5.96 |

| SMILES | pIC50 |
| --- | --- |
| Nc1nc(N)c2cc(Cc3ccc([N+](=O)[O-])cc3)cnc2n1 | 6.03 |
| Oc1cccc(Nc2nc(NCC3CCCO3)c3ccccc3n2)c1 (configuration not stated) | 6.09 |
| O=C(/C=C/c1ccc(Cl)c(Cl)c1)NCCCCCN1CCCC(CNC(=O)Nc2ccc(Oc3ccccc3)cc2)C1 (configuration not stated) | 6.11 |
| CC(=O)Nc1ccc(C(=O)Nc2cccc(-c3ccc(-c4nc5ccccc5[nH]4)s3)c2)cn1 | 6.74 |
| COC(=O)Cn1c2ccccc2c2c(N)c(C(=O)OC)c(C)nc21 | 6.03 |
| COc1ccccc1CNC(=O)c1cc(Br)cc(N2CCN(c3ccncc3)CC2)c1 | 6.02 |
| CCCCCCNC(=O)C1Cc2c([nH]c3ccccc23)C2(CCN(CCc3ccccc3)CC2)N1 (configuration not stated) | 5.94 |
| O=C(/C=C/c1ccc(Cl)c(Cl)c1)NCCCCCCN1CCCN(C(=O)Nc2ccc(F)c(F)c2)CC1 | 5.91 |
| COc1ccc2nccc([C@@H](O)CN3CCC(NC(=O)c4cc5c(F)cc(F)cc5[nH]4)CC3)c2n1 | 5.86 |
| Fc1cccc(COc2ccc(Nc3ncnc4sc(C#CC5CCCCN5)cc34)cc2Cl)c1 (configuration not stated) | 6.27 |
| Cc1nc(N/C=C/c2ccc(O)cc2)cc(N2CCCC2)n1 | 5.97 |
| O=C(/C=C/c1cc(F)cc(C(F)(F)F)c1)N1CCC(CN2CCC(c3c[nH]c4ccccc34)CC2)CC1 | 6.12 |
| FC(F)(F)c1cccc(CNCC2CCN(Cc3ccc4c(c3)OCO4)CC2)c1 | 6.14 |
| Cc1cccn2c(=O)c3cc(C(=O)NCc4cccnc4)c(=N)n(CCc4ccccc4)c3nc12 | 6.15 |
| NC(=O)c1cc(-c2ccccc2)cc2c(C3CCC(NCc4ccccc4)C3)c[nH]c12 (configuration not stated) | 6.04 |
| Cc1ccc(-c2cc(C(=O)Nc3ccc(S(=O)(=O)N(C)Cc4ccccc4)cc3)[nH]n2)c(O)c1 | 6.07 |
| CC(C)C[C@H](NC(=O)c1cc2ccccc2s1)C(=O)N[C@H]1CCN(Cc2ccc(OC[C@@H]3CCCN3C)c(Cl)c2)C1 | 6.07 |
| COc1ccc(NC(=O)/C=C/c2ccccc2Cl)cc1OCCN1CCC(N(C)C)CC1 | 6.01 |
| Cc1cccc(CNc2nc(C)cc(N[C@@H](Cc3ccccc3)C(=O)NC3CCCC3)n2)c1 | 6.19 |
| CCCCCCCN1CC[C@H](NC(=O)Nc2ccnc3ccc(OC)cc23)[C@H](CO)C1 | 6.74 |
| COc1cc(OC)c(NC(=O)COc2ccc(C)cc2)cc1Cl | 6.16 |
| N#Cc1ccc(N[C@@H](CC2CCCCC2)C(=O)N[C@@H]2CCCc3ccccc32)c2ccccc12 | 6.14 |
